Biological target: T1, human CaSR (Homo sapiens, UniProt P41180)
T1 sequence (P41180 20-1078): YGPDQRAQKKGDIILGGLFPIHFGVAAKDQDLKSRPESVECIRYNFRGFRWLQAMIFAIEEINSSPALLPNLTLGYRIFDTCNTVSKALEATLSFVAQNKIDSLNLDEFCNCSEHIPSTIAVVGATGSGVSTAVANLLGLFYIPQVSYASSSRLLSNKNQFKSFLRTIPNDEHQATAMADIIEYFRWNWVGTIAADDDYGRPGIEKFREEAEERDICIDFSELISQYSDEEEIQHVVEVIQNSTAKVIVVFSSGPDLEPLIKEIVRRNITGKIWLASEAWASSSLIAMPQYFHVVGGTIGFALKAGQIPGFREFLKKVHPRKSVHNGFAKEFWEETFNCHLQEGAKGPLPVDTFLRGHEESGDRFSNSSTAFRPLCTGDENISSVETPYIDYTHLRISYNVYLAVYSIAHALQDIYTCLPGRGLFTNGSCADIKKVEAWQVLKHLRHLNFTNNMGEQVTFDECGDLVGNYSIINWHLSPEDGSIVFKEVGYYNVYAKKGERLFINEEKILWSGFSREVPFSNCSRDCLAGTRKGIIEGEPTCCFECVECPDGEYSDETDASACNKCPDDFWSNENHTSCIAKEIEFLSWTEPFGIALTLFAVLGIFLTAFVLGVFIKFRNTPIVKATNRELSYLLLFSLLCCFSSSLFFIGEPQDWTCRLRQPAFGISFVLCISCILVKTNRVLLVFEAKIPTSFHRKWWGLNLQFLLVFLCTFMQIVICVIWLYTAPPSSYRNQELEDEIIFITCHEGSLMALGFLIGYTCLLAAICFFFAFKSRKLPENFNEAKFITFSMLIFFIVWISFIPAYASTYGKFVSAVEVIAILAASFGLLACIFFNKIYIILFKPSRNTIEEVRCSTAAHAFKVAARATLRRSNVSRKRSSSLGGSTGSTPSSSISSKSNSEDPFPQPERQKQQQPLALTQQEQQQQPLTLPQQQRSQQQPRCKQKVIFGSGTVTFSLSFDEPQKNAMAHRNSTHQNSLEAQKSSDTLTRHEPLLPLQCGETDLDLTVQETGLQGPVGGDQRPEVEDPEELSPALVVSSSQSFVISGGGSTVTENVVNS
Test: Functional whole cell assay (modulation of human CaSR), IP1 accumulation in CHO-K1 cells
Type: cell-based
Details: CHO-K1 cells stably expressing human CaSR, final Ca2+ 1.9 mM, IP1 readout; concentration producing 50% of maximum agonistic response
Excerpt: The assay investigates a compound's functional ability to act as a biological positive modulator on the human CaSR. Activation of the receptor expressed on CHO-K1 cells is detected through the G alpha q pathway, the activation of phospholipase C and the accumulation of intracellular inositol phosphate (IP) as described earlier [Sandrine Ferry, Bruno Chatel, Robert H. Dodd, Christine Lair, Danielle Gully, Jean-Pierre Maffrand, and Martial Ruat. Effects of Divalent Cations and of a Calcimimetic on Adrenocorticotropic Hormone Release in Pituitary Tumor Cells. Biochemical and biophysical research Communications 238, 866-873 (1997)]. The human CaSR is stably expressed on a CHO-K1 cell clone, stimulated with a basal level of calcium and challenged with the tested compound. The level of IP1 is determined using the IP-One Terbium htrf kit (Cisbio, France). CHO-K1 cells not transfected with the CaSR fail to elicit an IP1 response upon calcium and/or compound stimulation.
The ORF coding for the human CaSR (genebank: NM_000388) was acquired from Invitrogen Corp, USA and subsequently cloned into the mammalian expression vector pCDA3.1.
CHO-K1 cells were transfected using Lipofectamine according to manufacturer's protocol (400.000 cells/well were seeded in a 6-well plate and transfected after 24 hours using 2 μg DNA and 5 μl lipofectamine). After another 24 hours the cells were detached, seeded and subjected to 1 mg/ml of G-418. Following 7 days growth single clones were picked, the CaSR expression evaluated using the 5C10 antibody against CaSR, the clones with the highest expression were selected and tested for functional response. The preferred clone was cultured according to standard procedures described in ATCC (American Type Culture Collection) protocols for CHO-K1 with the addition of 500 μg/ml G-418.
On the assay day, cells were thawed, harvested and resuspended to 4*10^6 cells/ml in stimulation buffer (containing: Hepes 10 mM, MgCl2 0.5 mM, KCl 4.2 mM, NaCl 146 mM, glucose 5.5 mM, LiCl 50 mM, BSA 0.5% at pH 7.4). Ten μl cell solution was pipetted into wells of a white 384-well plate (Perkin Elmer Optiplate) containing 2 μl compound diluted in assay buffer (containing: Hepes 10 mM, MgCl2 0.5 mM, KCl 4.2 mM, NaCl 146 mM, glucose 5.5 mM, LiCl 50 mM, CaCl2 11.4 mM at pH 7.4), resulting in a final Ca^2+ concentration of 1.9 mM. After compound stimulation for 1 hour at 37° C. and 15 min at room temperature, 10 ul of IP-One assay detection reagent (prepared as described by the IP-One assay kit manufacturer) was added and the plate was incubated for another 1 hour at room temperature. Finally the plate was read using a Perkin Elmer EnVision, according to the protocol supplied by the IP-One assay kit manufacturer. The FRET ratio was calculated by dividing the 665 nm emission signal with that of the 615 nm.
The molar concentration of a compound that produces 50% of the maximum agonistic response (the […] value) is calculated according to the equation “General sigmoidal curve with Hill slope, a to d” (Equation 1). This model describes a sigmoidal curve with an adjustable baseline. The equation can be used to fit curves where response is either increasing or decreasing with respect to the independent variable, X. […]
y=(a−d)/(1+(x/c)̂b)+d Equation 1 x=concentration of tested compound […]
a=min response as compound concentration approaches 0 d=max response as concentration of tested compound is increasing […]
b=Hill coefficient or curve slope

EC50 [nM]	Compound
< 200	COc1cc([C@@H](C)N[C@H]2CC[C@@H](c3ccc(OCC(=O)N4CCNCC4)cc3)C2)ccc1F [Compound 103, 2-[4-[(1R,3S)-3-[[(1R)-1-(4-Fluoro-3-methoxy-phenyl)ethyl]-amino]-cyclopentyl]phenoxy]-1-piperazin-1-yl-ethanone]
< 200	COc1cc([C@@H](C)N[C@H]2CC[C@@H](c3ccc(OCC(=O)NCCS(N)(=O)=O)cc3)C2)ccc1F [Compound 104, 2-[4-[(1R,3S)-3-[[(1R)-1-(4-Fluoro-3-methoxy-phenyl)ethyl]-amino]-cyclopentyl]phenoxy]-N-(2-sulfamoylethyl)acetamide]
< 200	COc1cc([C@@H](C)N[C@H]2CC[C@@H](c3ccc(OCC(=O)NCCNCCO)cc3)C2)ccc1F [Compound 106, 2-[4-[(1R,3S)-3-[[(1R)-1-(4-Fluoro-3-methoxy-phenyl)ethyl]-amino]-cyclopentyl]phenoxy]-N-[2-(2-hydroxyethylamino)ethyl]acetamide]
< 200	COc1cc([C@@H](C)N[C@H]2CC[C@@H](c3ccc(OCC(=O)NCCNS(C)(=O)=O)cc3)C2)ccc1F [Compound 108, 2-[4-[(1R,3S)-3-[[(1R)-1-(4-Fluoro-3-methoxy-phenyl)ethyl]-amino]-cyclopentyl]phenoxy]-N-[2-(methanesulfonamido)ethyl]acetamide]
< 200	COc1cc([C@@H](C)N[C@H]2CC[C@@H](c3ccc(OCC(=O)N4CCN(C(C)=O)CC4)cc3)C2)ccc1F [Compound 109, 1-(4-Acetylpiperazin-1-yl)-2-[4-[(1R,3S)-3-[[(1R)-1-(4-fluoro-3-methoxy-phenyl)ethyl]amino]cyclopentyl]phenoxy]ethanone]
< 200	COc1cc([C@@H](C)N[C@H]2CC[C@@H](c3ccc(OCC(=O)N4CCN(S(N)(=O)=O)CC4)cc3)C2)ccc1F [Compound 110, 4-[2-[4-[(1R,3S)-3-[[(1R)-1-(4-Fluoro-3-methoxy-phenyl)-ethyl]-amino]cyclopentyl]phenoxy]acetyl]piperazine-1-sulfonamide]
< 200	C[C@@H](N[C@H]1CC[C@@H](c2ccc(OCC(=O)NC3CCNCC3)cc2)C1)c1cccc2ccccc12 [Compound 112, 2-[4-[(1R,3S)-3-[[(1R)-1-(1-Naphthyl)ethyl]amino]cyclopentyl]-phenoxy]-N-(4-piperidyl)acetamide]
